# From ChEMBL document CHEMBL4513161, “CO-ADD screening of MMV (CH) - Pandemic Response Box” (2021)
# Legend:
# Acinetobacter baumannii = experiment: microbe, parasite or virus in culture; details: ATCC 19606, 18 h, ASSAY_TEST Inhibition of Bacterial Growth, detection method Absorption (OD600), MEDIA CAMHB, plate type 384well, NBS, CORNING #3640
# Description: Antibacterial activity against Acinetobacter baumannii ATCC 19606 (CO-ADD:GN_034); MIC in CAMBH media using NBS plates, by OD600
# Pseudomonas aeruginosa [1] = experiment: Antibacterial activity against Pseudomonas aeruginosa PAO397 [PAO1 d(mexAB-oprM) d(mexCD-oprJ) d(mexEF-oprN) d(mexJKL) d(mexXY) d(opmH)] (CO-ADD:GN_211); MIC in CAMBH media using NBS plates, by OD(600); assay type: functional; details: ASSAY_TEST Inhibition of Bacterial Growth, detection method Absorption (OD600), MEDIA CAMHB, plate type 384well, CORNING #3640, time 18 hr
# Candida albicans = experiment: microbe, parasite or virus in culture; details: ATCC 90028, ASSAY_TEST Inhibition of Fungal Growth, detection method Absorption (OD530), plate type 384well, NBS, CORNING #3640
# Description: Antifungal activity against Candida albicans ATCC 90028 (CO-ADD:FG_001); MIC in YNB media using NBS plates, by OD630
# Escherichia coli = experiment: microbe, parasite or virus in culture; details: ATCC 25922, 18 h, ASSAY_TEST Inhibition of Bacterial Growth, detection method Absorption (OD600), MEDIA CAMHB, plate type 384well, NBS, CORNING #3640
# Description: Antibacterial activity against Escherichia coli ATCC 25922 (CO-ADD:GN_001); MIC in CAMBH media using NBS plates, by OD(600)
# HEK293 = experiment: cells; assay type: functional, Homo sapiens, ATCC CRL1573; details: Homo sapiens, ATCC CRL1573, HEK293; ASSAY_TEST Inhibition of Cell Viability; detection method Resazurin; Fluorescence (ex560/em590); MEDIA DMEM with 10% FBS; plate type 384well; TC; CORNING #3712; time 18 hr; read-out: CC50
# Pseudomonas aeruginosa [2] = experiment: microbe, parasite or virus in culture; details: ATCC 27853, 18 h, ASSAY_TEST Inhibition of Bacterial Growth, detection method Absorption (OD600), MEDIA CAMHB, plate type 384well, NBS, CORNING #3640
# Description: Antibacterial activity against Pseudomonas aeruginosa ATCC 27853 (CO-ADD:GN_042); MIC in CAMBH media using NBS plates, by OD(600)
# Staphylococcus aureus = experiment: microbe, parasite or virus in culture; details: ATCC 43300, 18 h, ASSAY_TEST Inhibition of Bacterial Growth, detection method Absorption (OD600), MEDIA CAMHB, plate type 384well, NBS, CORNING #3640
# Description: Antibacterial activity against Staphylococcus aureus MRSA ATCC 43300 (CO-ADD:GP_020); MIC in CAMBH media, using NBS plates, by OD(600)
# Klebsiella pneumoniae = experiment: microbe, parasite or virus in culture; details: ATCC 700603, 18 h, ASSAY_TEST Inhibition of Bacterial Growth, detection method Absorption (OD600), MEDIA CAMHB, plate type 384well, NBS, CORNING #3640
# Description: Antibacterial activity against Klebsiella pneumoniae MDR ATCC 70063 (CO-ADD:GN_003); MIC in CAMBH media using NBS plates, by OD(600)
# Description for Cryptococcus neoformans: Antifungal activity against Cryptococcus neoformans H99 ATCC 208821 (CO-ADD:FG_002); MIC in YNB media using NBS plates, by Resazurin OD(600-570)
SMILES,MIC (Acinetobacter baumannii),MIC (Pseudomonas aeruginosa [1]),MIC (Candida albicans),MIC (Escherichia coli),CC50 (HEK293),MIC (Pseudomonas aeruginosa [2]),MIC (Cryptococcus neoformans),MIC (Staphylococcus aureus),MIC (Klebsiella pneumoniae)
CCOC(=O)Nc1cc(NC(C)CC(C)CN(CC)CC)c2nc(-c3ccccc3)c(-c3ccccc3)nc2n1 (stereo not given),> 20 µM,> 20 µM,> 20 µM,> 20 µM,> 20 µM,> 20 µM,> 20 µM,> 20 µM,> 20 µM
C[C@H](NC(CC(=O)c1ccccc1C(F)(F)F)C(=O)O)c1ccccc1 (stereo not given in full),> 20 µM,> 20 µM,> 20 µM,> 20 µM,> 20 µM,> 20 µM,> 20 µM,> 20 µM,> 20 µM
C[C@@H](NC(=O)c1ccccc1-c1ccccc1)B(O)O,> 20 µM,> 20 µM,> 20 µM,> 20 µM,> 20 µM,> 20 µM,> 20 µM,> 20 µM,> 20 µM
O=C(Nc1ccc(N2CCN(C(=O)c3ccccc3)CC2)cc1)c1ccc2c(c1)OCO2,> 20 µM,> 20 µM,> 20 µM,> 20 µM,> 20 µM,> 20 µM,> 20 µM,> 20 µM,> 20 µM
CC(C)Oc1ccc(-c2nc(-c3cccc4c3CC[C@@H]4NCCO)no2)cc1C#N [OZANIMOD],> 20 µM,> 20 µM,> 20 µM,> 20 µM,> 20 µM,> 20 µM,> 20 µM,> 20 µM,> 20 µM
NC(=O)c1nccn([C@@H]2O[C@H](CO)[C@@H](O)[C@H]2O)c1=O,> 20 µM,> 20 µM,> 20 µM,> 20 µM,> 20 µM,> 20 µM,> 20 µM,> 20 µM,> 20 µM
CCCCCCCCC(CP(=O)(O)C(C)N)C(=O)O (stereo not given),> 20 µM,> 20 µM,> 20 µM,> 20 µM,> 20 µM,> 20 µM,> 20 µM,> 20 µM,> 20 µM
Nc1nc2c(ncn2COCCO)c(=O)[nH]1 [ACYCLOVIR],> 20 µM,> 20 µM,> 20 µM,> 20 µM,> 20 µM,> 20 µM,> 20 µM,> 20 µM,> 20 µM
COc1ccc(CNC(=O)C(NS(=O)(=O)c2ccc3nc(C)sc3c2)C(C)C)cc1 (stereo not given),> 20 µM,> 20 µM,> 20 µM,> 20 µM,> 20 µM,> 20 µM,> 20 µM,> 20 µM,> 20 µM
O=C(NCc1cccc2ccccc12)c1cccs1,> 20 µM,> 20 µM,> 20 µM,> 20 µM,> 20 µM,> 20 µM,> 20 µM,> 20 µM,> 20 µM
CCc1cc(Nc2cc(=O)n(CCN3CCN(C(=O)c4ccccc4)CC3)c(=O)[nH]2)ccc1C,> 20 µM,> 20 µM,> 20 µM,> 20 µM,> 20 µM,> 20 µM,> 20 µM,> 20 µM,> 20 µM
Cc1c[nH]c(=O)nc1NCc1ccccc1,> 20 µM,> 20 µM,> 20 µM,> 20 µM,> 20 µM,> 20 µM,> 20 µM,> 20 µM,> 20 µM
COc1ccc(SC(=O)N[C@H](CCC(=O)O)C(=O)O)cc1,> 20 µM,> 20 µM,> 20 µM,> 20 µM,> 20 µM,> 20 µM,> 20 µM,> 20 µM,> 20 µM
CC(C)(C)c1ccc(C(=O)NC(=O)N2CCCc3ccccc32)cc1,> 20 µM,> 20 µM,> 20 µM,> 20 µM,> 20 µM,> 20 µM,> 20 µM,> 20 µM,> 20 µM
O=C(c1ccc(F)cc1)N1CCN2C(=O)c3ccccc3C12c1ccccc1 (stereo not given),> 20 µM,> 20 µM,> 20 µM,> 20 µM,> 20 µM,> 20 µM,> 20 µM,> 20 µM,> 20 µM
O=C(c1nc2c(C(F)(F)F)cc(C3CC3)cn2c1Cl)N1CCN([C@H]2CC[C@H](O)CC2)C(=O)C1,> 20 µM,> 20 µM,> 20 µM,> 20 µM,> 20 µM,> 20 µM,> 20 µM,> 20 µM,> 20 µM
O=P(O)(O)C(CCCc1cccc(Oc2ccccc2)c1)S(=O)(=O)O (stereo not given),> 20 µM,> 20 µM,> 20 µM,> 20 µM,> 20 µM,> 20 µM,> 20 µM,> 20 µM,> 20 µM
C[C@H](Cn1cnc2c(N)ncnc21)OCP(=O)(O)O [TENOFOVIR ANHYDROUS],> 20 µM,> 20 µM,> 20 µM,> 20 µM,> 20 µM,> 20 µM,> 20 µM,> 20 µM,> 20 µM
O=C(NCCN1CCCCC1)c1cccc(C(F)(F)F)c1,> 20 µM,> 20 µM,> 20 µM,> 20 µM,> 20 µM,> 20 µM,> 20 µM,> 20 µM,> 20 µM
O=C(N[C@H](Cc1cccc2ccccc12)C(=O)NCCc1c[nH]cn1)C1Cc2ccccc2C1,> 20 µM,> 20 µM,> 20 µM,> 20 µM,> 20 µM,> 20 µM,> 20 µM,> 20 µM,> 20 µM
O=C1NC(=S)N/C1=C\c1cc(Br)cc(Br)c1O,> 20 µM,20 µM,> 20 µM,> 20 µM,> 20 µM,> 20 µM,> 20 µM,> 20 µM,> 20 µM
O=C(O)c1cc(-c2ccccc2)nc2ccccc12 [CINCHOPHEN],> 20 µM,> 20 µM,> 20 µM,> 20 µM,> 20 µM,> 20 µM,> 20 µM,> 20 µM,> 20 µM
N#Cc1cc([N+](=O)[O-])ccc1Oc1ccccc1Cl,> 20 µM,> 20 µM,> 20 µM,> 20 µM,> 20 µM,> 20 µM,> 20 µM,> 20 µM,> 20 µM
Cc1nc(Nc2ccc(F)cc2)nc(N2CCc3ccccc3C2C)c1C (stereo not given) [REVAPRAZAN],> 20 µM,> 20 µM,> 20 µM,> 20 µM,> 20 µM,> 20 µM,> 20 µM,> 20 µM,> 20 µM
Nc1nnc(-c2ccc(Cl)cc2)s1,> 20 µM,> 20 µM,> 20 µM,> 20 µM,> 20 µM,> 20 µM,> 20 µM,> 20 µM,> 20 µM
